Source: US9889115B2, “Fitness assay and associated methods” (priority 1998, dated 2018)

What was measured:
HIV-1LAI [1] = experiment: MT-2 cells, MTT assay; type: cell-based; conditions: HIV-1LAI; MT-2/MTT, day 7
Method: All drug sensitivities were performed in triplicate. […] The IC50's were determined using the MTT assay on day 7 of culture. All sensitivities were determined in […].

HIV-1BAL = experiment: PHA-PBMC assay, p24 Gag protein production; type: cell-based; conditions: HIV-1Ba-L; PBMC/p24, day 7 (Table 8)
HIV-1LAI [2] = experiment: PHA-PBMC assay, p24 Gag protein production; type: cell-based; conditions: HIV-1LAI; PBMC/p24, day 7 (Table 8)
[3] = target: T1, wild-type HIV-1 (WT) protease (Human immunodeficiency virus type 1 group M subtype B, UniProt P04585); experiment: continuous fluorogenic HIV protease assay; type: biochemical; conditions: WT (Table 7)
T1 construct: the proteases of wild-type HIV-1 (WT)
Method: (§1) This example describes the protocol for the sensitive continuous fluorogenic assay for HIV protease of the present invention and its application. […] The inhibition constant for wild-type HIV-1, Kimnt/Kiwt ratio, and vitality were measured.
(§2) The reaction was initiated by the addition of 5 μl of substrate stock solution in water. […] The initial rate of hydrolysis was calculated by second degree polynomial fit using SLM AB2 2.0 operating software.
(§3) For inhibition studies, inhibitors were prepared as stock solutions at different concentrations in dimethylsulfoxide. […] The reaction was initiated by the addition of 5 μl of substrate stock solution in water. For data analysis, the mathematical model for tight-binding inhibitors was used.

HIV-1 protease V82F/I84V [4] = experiment: continuous fluorogenic HIV protease assay; type: biochemical
Method: as §1, §2, §3

HIV-1 protease V82F/I84V [5] = target: T2, HIV-1 protease V82F/I84V (Human immunodeficiency virus type 1 group M subtype B, UniProt P04585, I572V/V570F); experiment: continuous fluorogenic HIV protease assay; type: biochemical; conditions: V82F/I84V (Table 7)
T2 construct: the proteases of wild-type HIV-1 (WT) and various mutant enzymes
Method: as §1, §2, §3

HIV-1 protease G48V/V82A = target: T3, HIV-1 protease G48V/V82A (Human immunodeficiency virus type 1 group M subtype B, UniProt P04585, G536V/V570A); experiment: continuous fluorogenic HIV protease assay; type: biochemical
T3 construct: proteases containing the deleterious drug resistance associated mutations V82F/I84V and G48V/V82A
Method: This example describes the protocol for the sensitive continuous fluorogenic assay for HIV protease of the present invention and its application. […] 21702-1201, upon written request. The inhibition constant for wild-type HIV-1, Kimnt/Kiwt ratio, and vitality were measured. (See Gulnik et al., Biochemistry, 34, 9282-9287 (1995). Protease activity was measured using the fluorgenic substrate Lys-Ala-Arg-Val-Tyr-Phe(NO2)-Glu-Ala-Nle-NH2 (Bachem Bioscience, Inc.). (See Peranteau et al., D.H. (1995) Anal. Biochem.).
The reaction was initiated by the addition of 5 μl of substrate stock solution in water. Increase in fluorescence intensity at the emission maximum of 306 nm (excitation wavelength was 277 nm) was monitored as a function of time using Aminco Bowman-2 luminescence spectrometer (SLM Instruments, Inc.). The initial rate of hydrolysis was calculated by second degree polynomial fit using SLM AB2 2.0 operating software.
as §3, with “used. (See Williams and Morrison (1979), In: Methods of Enzymol. 63, (ed. D. L. Purich), 437-467, Academic Press, NY, London). […]” for “used.”
This example describes the inhibitory activity of compounds 35 (FIG. 5A), 36 (FIG. 5B), 37 (FIG. 5C) and 38 (FIG. 5D). In accordance with the technique disclosed in Example 13 above, the inhibitory activity of these compounds was tested against proteases of the wild-type HIV-1. Compound 36, 37 and 38 were also tested against proteases containing the deleterious drug resistance associated mutations V82F/I84V and G48V/V82A. Fitness was determined in accordance with Example 13.

For `CC(C)CN(C[C@@H](O)[C@H](Cc1ccccc1)NC(=O)O[C@H]1CO[C@H]2OCC[C@H]21)S(=O)(=O)c1cccc(CO)c1` [Compound 38], which IC50 (HIV-1LAI [1]) is on record?
The IC50 was 28 nM.

And the IC50 (HIV-1BAL)?
Its IC50 is 9.3 nM.

What about the IC50 (HIV-1LAI [2]) of the same compound?
The IC50 was 8 nM.

What about the Ki [3] of the same compound?
The Ki was greater than 0.005 nM.

And the KI-wt/KI-mut (HIV-1 protease V82F/I84V [4]; V82F/I84V (Table 7))?
Its KI-wt/KI-mut is greater than 13.

What about the Fitness (HIV-1 protease V82F/I84V [4]; V82F/I84V relative to WT (Table 7)) of the same compound?
The Fitness was greater than 2.1.

And the Ki (HIV-1 protease V82F/I84V [5])?
The Ki was 0.0668 nM.

What about the KI-wt/KI-mut (HIV-1 protease G48V/V82A; G48V/V82A) of the same compound?
The KI-wt/KI-mut was greater than 6.8.

What about the Ki (HIV-1 protease G48V/V82A; G48V/V82A) of the same compound?
The Ki was 0.034 nM.

What about the Fitness (HIV-1 protease G48V/V82A; G48V/V82A relative to WT) of the same compound?
Its Fitness is greater than 1.8.
